The values below come from ChEMBL document CHEMBL1142925, “Optimization and determination of the absolute configuration of a series of potent inhibitors of human papillomavirus type-11 E1-E2 protein-protein interaction: a combined medicinal chemistry, NMR and computational chemistry approach” (Bioorg Med Chem, 2007).

Calls of active or inactive are those of the source. The rule behind the calls is not given here.

For assay [1], the target named is Large T antigen (Simian virus 40) (UniProt P03070). Kind of assay: Inhibition of binding of SV40 large T antigen to DNA by scintillation proximity assay. The note with it: Betapolyomavirus macacae.
Assay [2] can be described thus: Inhibition of HPV11 E1-E2 protein-protein interaction by E1-E2-ori-complex formation assay.

Large T antigen (Simian virus 40), sequence (P03070 whole entry): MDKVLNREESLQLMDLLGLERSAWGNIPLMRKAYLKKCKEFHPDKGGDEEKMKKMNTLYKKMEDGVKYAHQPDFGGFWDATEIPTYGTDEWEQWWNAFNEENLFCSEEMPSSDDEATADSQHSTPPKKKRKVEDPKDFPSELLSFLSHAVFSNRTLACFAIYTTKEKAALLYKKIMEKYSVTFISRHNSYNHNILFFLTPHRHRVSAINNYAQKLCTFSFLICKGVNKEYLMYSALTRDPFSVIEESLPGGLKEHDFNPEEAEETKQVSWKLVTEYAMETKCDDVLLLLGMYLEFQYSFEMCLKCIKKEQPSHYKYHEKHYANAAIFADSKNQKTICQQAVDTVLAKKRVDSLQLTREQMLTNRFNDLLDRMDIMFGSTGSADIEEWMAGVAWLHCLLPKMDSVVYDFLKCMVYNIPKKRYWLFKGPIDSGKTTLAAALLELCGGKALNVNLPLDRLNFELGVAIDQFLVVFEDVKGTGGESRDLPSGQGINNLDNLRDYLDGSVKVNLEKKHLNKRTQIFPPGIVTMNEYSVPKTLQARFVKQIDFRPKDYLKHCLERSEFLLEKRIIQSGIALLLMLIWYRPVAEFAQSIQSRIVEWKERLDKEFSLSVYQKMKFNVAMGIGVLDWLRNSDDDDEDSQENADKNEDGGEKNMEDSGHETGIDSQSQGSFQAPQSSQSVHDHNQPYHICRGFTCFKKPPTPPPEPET

`O=C(Nc1ccc(N2CCOCC2)cc1)[C@H]1[C@@H](C(=O)O)C2(O[C@H]1c1ccc(Cl)c(Cl)c1)C(=O)c1ccccc1C2=O`: the outcome in assay [1] was inactive. In addition, the IC50 in assay [2] worked out at 88 nM.

For the compound `CC(=O)Nc1cccc(NC(=O)[C@H]2[C@@H](C(=O)O)C3(O[C@H]2c2ccc(Cl)c(Cl)c2)C(=O)c2ccccc2C3=O)c1`, the result in assay [1] was inactive. Moreover, the IC50 in assay [2] came out at 740 nM.

In the case of `Cc1cc2c(s1)C(=O)[C@]1(O[C@@H](c3ccc(Br)c(Br)c3)[C@@H](C(=O)Nc3ccc(N4CCOCC4)cc3)[C@H]1C(=O)O)C2=O`, in assay [1], the outcome was inactive. Further, half-maximal inhibition in assay [2] (IC50) required 6 nM.

On to `O=C(Nc1ccc2c(c1)OCO2)[C@H]1[C@H]2C(=O)O[C@]3(O)c4ccccc4C(=O)[C@]23O[C@H]1c1ccc(Cl)cc1`, for which, in assay [1], the outcome was inactive. In assay [2], this compound registered an IC50 of 6600 nM.

Regarding `Cc1cc2c(s1)C(=O)[C@@]1(O[C@@H](c3ccc(Br)c(Br)c3)[C@@H](C(=O)Nc3ccc(N4CCOCC4)cc3)[C@H]1C(=O)O)C2=O`, the outcome in assay [1] was inactive. This compound also yielded an IC50 in assay [2] of 460 nM.

As to `O=C(Nc1ccc(N2CCOCC2)cc1)[C@H]1[C@@H](c2ccc(Br)c(Br)c2)OC2(C(=O)c3ccccc3C2=O)[C@H]1C(=O)O`, the result in assay [1] was inactive. Besides, in assay [2], the IC50 is 15000 nM.

Turning to `C[C@@H](NC(=O)[C@H]1[C@H]2C(=O)O[C@]3(O)c4ccccc4C(=O)[C@]23O[C@H]1c1ccc(Cl)c(Cl)c1)c1ccccc1`, the result in assay [1] was inactive. This compound also gave an IC50 in assay [2] of 6800 nM.

On to `O=C(Nc1ccc2c(c1)OCO2)[C@H]1[C@@H](C(=O)O)C2(O[C@H]1c1ccc(Cl)c(Cl)c1)C(=O)c1ccccc1C2=O`, for which, in assay [1], the result was inactive. In assay [2], this compound returned an IC50 of 350 nM.

With `CC(=O)Nc1ccccc1NC(=O)[C@H]1[C@@H](C(=O)O)C2(O[C@H]1c1ccc(Cl)c(Cl)c1)C(=O)c1ccccc1C2=O`, in assay [1], the result was inactive. Moreover, the IC50 in assay [2] came to 65000 nM.

`O=C(Nc1ccccc1)[C@H]1[C@@H](C(=O)O)C2(O[C@H]1c1ccc(Cl)c(Cl)c1)C(=O)c1ccccc1C2=O`: in assay [1], the result was inactive. In assay [2], this compound gave an IC50 of 680 nM.

With `C[C@@H](NC(=O)[C@H]1[C@@H](c2ccc(Cl)c(Cl)c2)O[C@@]23C(=O)c4ccccc4[C@]2(O)OC(=O)[C@@H]13)c1ccccc1`, the outcome in assay [1] was inactive. Further, the IC50 in assay [2] was over 75000 nM.

Compound `O=C(Nc1ccc(N2CCOCC2)cc1)[C@H]1[C@@H](C(=O)O)C2(O[C@H]1c1ccc(Br)c(Br)c1)C(=O)c1ccccc1C2=O` (stereo in doubt; 19) [listing 1 of 2 here] returned a half-maximal inhibitory concentration (IC50) in assay [2] of 51 nM.

Turning to `CC(=O)Nc1ccc(NC(=O)[C@H]2[C@@H](C(=O)O)C3(O[C@H]2c2ccc(Cl)c(Cl)c2)C(=O)c2ccccc2C3=O)cc1`, the outcome in assay [1] was inactive. Further, the IC50 in assay [2] is 440 nM.

`O=C(Nc1ccc(N2CCOCC2)cc1)[C@H]1[C@@H](C(=O)O)C2(O[C@H]1c1ccc(Br)c(Br)c1)C(=O)c1ccccc1C2=O` (stereo in doubt; 19) [listing 2 of 2 here]: the outcome in assay [1] was inactive.

Compound `O=C(Nc1ccc(N2CCOCC2)cc1)[C@H]1[C@@H](C(=O)O)C2(O[C@H]1c1ccc(Br)c(Br)c1)C(=O)c1ccccc1C2=O` (stereo in doubt; 21) [listing 1 of 2 here] registered an IC50 in assay [2] of 28 nM.

Turning to `O=C(Nc1ccc2c(c1)OCO2)[C@H]1[C@@H](C(=O)O)C2(O[C@H]1c1ccc(Cl)cc1)C(=O)c1ccccc1C2=O`, in assay [1], the outcome was inactive. This compound showed an IC50 in assay [2] of 7800 nM.

For the compound `Cc1ccc2c(c1)C(=O)[C@@]1(O[C@@H](c3ccc(Cl)c(Cl)c3)[C@@H](C(=O)Nc3ccc(-c4csnn4)cc3)[C@H]1C(=O)O)C2=O`, the outcome in assay [1] was inactive. The IC50 in assay [2] came to 180 nM.

For the compound `CC(C)(C)NC(=O)[C@H]1[C@@H](C(=O)O)C2(O[C@H]1c1ccc(Cl)c(Cl)c1)C(=O)c1ccccc1C2=O`, the outcome in assay [1] was inactive. Besides, the IC50 in assay [2] was 2100 nM.

On to `CC(=O)c1ccc(NC(=O)[C@H]2[C@@H](C(=O)O)C3(O[C@H]2c2ccc(Cl)c(Cl)c2)C(=O)c2ccccc2C3=O)cc1`, for which the result in assay [1] was inactive. The same compound gave an IC50 in assay [2] of 380 nM.

Turning to `O=C(NCc1ccccc1)[C@H]1[C@@H](C(=O)O)C2(O[C@H]1c1ccc(Cl)c(Cl)c1)C(=O)c1ccccc1C2=O`, the outcome in assay [1] was inactive. The IC50 in assay [2] is 3500 nM.

For `O=C(Nc1ccc(-c2csnn2)cc1)[C@H]1[C@@H](C(=O)O)C2(O[C@H]1c1ccc(Cl)c(Cl)c1)C(=O)c1ccccc1C2=O`, in assay [1], the result was inactive. Further, half-maximal inhibition in assay [2] (IC50) required 150 nM.

For the compound `O=C(Nc1ccc(N2CCOCC2)cc1)[C@H]1[C@@H](C(=O)O)C2(O[C@H]1c1ccc(Br)c(Br)c1)C(=O)c1ccccc1C2=O` (stereo in doubt; 21) [listing 2 of 2 here], in assay [1], the result was inactive.

The IC50 is the midpoint of a concentration-inhibition curve. Read a high IC50 as lower potency.
